One assay relates to NCI-H3122 cell line. The experiment in a line: PRISM compound assay, mixture of 25 barcoded lung adenocarcinoma cell lines. It counts as cell-based, human. Particulars: 0–10 μM, 5 days, in mixture.
The subject of another assay is NCI-H2228. The description is as above. Format: cell-based, human. Particulars: 0–10 μM, 5 days, in mixture.
For assay [1], the system named is BRAF-mutant vs BRAF wild-type cell lines. The experiment in a line: PRISM, 100 barcoded cell lines in 4 pools of 25, BRAF genotype comparison. Particulars: AUC of viability, 100 cell lines, PRISM (and Nuclei, ATP).
Assay [2] has as its system 4 EGFR-mutant cell lines in the pool. The experiment in a line: PRISM compound assay, mixture of 25 barcoded lung adenocarcinoma cell lines. Format: cell-based, human. Conditions: 0–10 μM, 5 days, viability relative to DMSO.
Assay [3] deals with 25 barcoded lung adenocarcinoma cell lines in mixture. The description is as above. It counts as cell-based, human. Particulars: 0–10 μg/ml, 5 days, viability relative to DMSO.

As for `COc1cc(N2CCC(N3CCN(C)CC3)CC2)ccc1Nc1ncc(Cl)c(Nc2ccccc2S(=O)(=O)C(C)C)n1` [NVP-TAE-684], in the assay on NCI-H3122 cell line, the “Sensitivity of NCI-H3122 (EML4-ALK translocation)” value was “sensitive”. Further, the “Sensitivity of NCI-H2228 (different EML4-ALK translocation)” value with NCI-H2228 is given as “intrinsic resistance”. On to `CCCS(=O)(=O)Nc1ccc(F)c(C(=O)c2c[nH]c3ncc(Cl)cc23)c1F` [PLX4720], for which the “Differential sensitivity of BRAF-mutant vs BRAF wild-type cell lines” value in assay [1] is listed as “hypersensitivity”.

For `C#Cc1cccc(Nc2ncnc3cc(OCCOC)c(OCCOC)cc23)c1` [erlotinib], the “Killing of EGFR-mutant cell lines in the pool” value in assay [2] is recorded as “dose-dependent killing”. With `COc1ccc(C[C@H](N)C(=O)N[C@H]2[C@@H](O)[C@H](n3cnc4c(N(C)C)ncnc43)O[C@@H]2CO)cc1` [puromycin], the “Pattern of cell killing across the pool” value in assay [3] is on record as “uniform killing across the pool”. `CNC(=O)c1cc(Oc2ccc(NC(=O)Nc3ccc(Cl)c(C(F)(F)F)c3)cc2)ccn1` [sorafenib]: in assay [1], the “Differential sensitivity of BRAF-mutant vs BRAF wild-type cell lines” value is “No significant differential sensitivity”.
